These results are taken from the supplement of paper PMC11061612.

The test system of experiment [1] is BT-474 (Breast Carcinoma). Nature of the experiment: Bliss excess, mean over the matrix (fraction); higher = more synergy. The method, boiled down:
(§1)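 Cell lines in DMEM/F12 or RPMI with 10% FBS were plated in 1536-well plates, held 24 hours at 37°C, 5% CO2, then given two-drug dose matrices for 72 hours (DMSO typically 0.2%). Viability was read by CellTiter-Glo 2.0 luminescence and scaled as inhibition from 0 (vehicle wells) to 1 (blank wells). Combination Emax is the second-highest inhibition in the matrix; Bliss excess is observed combination effect minus expected EA + EB − EA·EB, EA and EB being single-agent effects.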

The test system of experiment [2] is NCI-H1975 (Lung Adenocarcinoma). The description is as above. The essentials: as §1
Experiment [3] concerns COR-L105 (Lung Adenocarcinoma). Described as above. The essentials:
as §1

The subject of experiment [4] is MG-63 (Osteosarcoma). Described as above. The essentials:
as §1

Experiment [5] concerns TOV-21G (Ovarian Carcinoma). Described as above. The method, boiled down:
as §1

Experiment [6] concerns OVKATE (Ovarian Carcinoma). Described as above. The method, boiled down:
as §1

The test system of experiment [7] is NCI-H2170 (Squamous Cell Lung Carcinoma). The experiment is described as above. The method, boiled down: as §1
The subject of experiment [8] is SK-MEL-24 (Melanoma). The experiment is described as above. The method, boiled down:
as §1

In experiment [9] the test system is SUP-HD1 (Hodgkin's Lymphoma). The description is as above. The essentials:
as §1

Experiment [10] relates to MRK-nu-1 (Breast Carcinoma). Described as above. The method, boiled down:
as §1

Experiment [11] concerns IGROV-1 (Ovarian Carcinoma). The experiment is described as above. The method, boiled down:
as §1

Experiment [12] has as its system OCI-M1 (Acute Myeloid Leukemia). The experiment is described as above. The essentials:
as §1

In experiment [13] the test system is RVH-421 (Melanoma). The experiment is described as above. The method, boiled down:
as §1

Experiment [14] relates to GCIY (Gastric Carcinoma). The experiment is described as above. The essentials:
as §1

Experiment [15] deals with JJN-3 (Plasma Cell Myeloma). Described as above. The essentials:
as §1

Experiment [16] has as its system BC-1 (B-Cell Non-Hodgkin's Lymphoma). Described as above. The essentials: as §1
For experiment [17], the system named is NTERA-2-cl-D1 (Other Solid Carcinomas). The experiment is described as above. The essentials:
as §1

The subject of experiment [18] is RVH-421 (Melanoma). Nature of the experiment: combination Emax (second highest fraction inhibited in the dose matrix, 72 h); higher = more inhibition; extreme values may be limits of the assay. The essentials:
as §1

Experiment [19] relates to M14 (Melanoma). Nature of the experiment: Bliss excess, mean over the matrix (fraction); higher = more synergy. The method, boiled down: as §1
Experiment [20] concerns M14 (Melanoma). The experiment is described as follows: combination Emax (second highest fraction inhibited in the dose matrix, 72 h); higher = more inhibition; extreme values may be limits of the assay. The essentials: as §1

SMILES strings stand for the structures.
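Throughout, for Bliss excess, mean over the matrix: after 72 h of two-drug dosing.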

As to `Cc1cc2ncnn2cc1Nc1ncc2c(n1)n(C1CCOCC1)c(=O)n2C` [AZD7648] + C[C@@H]1COCCN1C2=NC(=NC(=C2)C3(CC3)[S@](=N)(=O)C)C4=C5C=CNC5=NC=C4 [AZD6738] (first compound max 10 µM, 7x7, partner max 10 µM), the Bliss excess is 0.0245 in experiment [1]; 0.015 in experiment [2]; -0.0511 in experiment [3]; 0.0557 in experiment [4]; 0.002 in [5]; 0.0232 in [6]. Moreover, the Bliss excess was -0.0153 in [7]; 0.0523 in experiment [8]; -0.0375 in [9]; 0.0054 in experiment [10]; -0.08 in experiment [11]; 0.0125 in experiment [12]. The Bliss excess in experiment [13] was 0.0381; in [14], 0.0524; in experiment [15], -0.0051; in experiment [16], -0.016; in experiment [17] it was 0.0533. Moreover, the “combination Emax” value in experiment [18] amounted to 0.322.

For `Cc1cc2ncnn2cc1Nc1ncc2c(n1)n(C1CCOCC1)c(=O)n2C` [AZD7648] + CCN(CCO)CCCOc1ccc2c(Nc3cc(CC(=O)Nc4cccc(F)c4)[nH]n3)ncnc2c1 [AZD2811] (first compound max 10 µM, 7x7, partner max 1 µM), the Bliss excess in experiment [1] was -0.0214; in experiment [2], 0.008; in [3] it was -0.0508; in experiment [4], 0.0401; in experiment [5], 0.0183; in experiment [6], -0.0834. In addition, the Bliss excess in experiment [7] was 0.0187; in experiment [8], -0.0121; in experiment [9], 0.0506; in experiment [10] it was 0.0245; in experiment [11], -0.115; in experiment [12], 0.0449. Besides, the Bliss excess in experiment [13] is -0.0193; in [14], 0.0949; in experiment [15], 0.0202; in [16], 0.035; in experiment [17], 0.012. The “combination Emax” value in experiment [18] worked out at 0.299.

For the compound `C=CCn1c(=O)c2cnc(Nc3ccc(N4CCN(C)CC4)cc3)nc2n1-c1cccc(C(C)(C)O)n1` [AZD1775] + C1CN(CCC1(C(=O)N[C@@H](CCO)C2=CC=C(C=C2)Cl)N)C3=NC=NC4=C3C=CN4 [Capivasertib] (first compound max 3 µM, partner max 3 µM), the Bliss excess in [1] was 0.0145; in experiment [2], -0.0668; in [3], -0.0627; in experiment [19], 0.0065; in [4] it was -0.0484; in [5] it was -0.0043. Further, the Bliss excess is -0.0239 in [6]; -0.0454 in experiment [7]; 0.0047 in experiment [8]; -0.0378 in [9]; -0.0885 in experiment [10]; -0.0435 in experiment [11]. In addition, the Bliss excess in experiment [12] is 0.0245; in experiment [14], -0.0277; in experiment [15] it was -0.0417; in experiment [16], 0.0279. For the same compound, in [20], the “combination Emax” value was 0.766.

For the compound `Cc1cc2ncnn2cc1Nc1ncc2c(n1)n(C1CCOCC1)c(=O)n2C` [AZD7648] + CN(C)CCCOc1ccc(-c2ccc3ncc4c(c3c2)n(C2CCOCC2)c(=O)n4C)cn1 [AZD0156] (first compound max 10 µM, 7x7, partner max 1 µM), the Bliss excess in [1] is 0.0241; in experiment [2], -0.0071; in experiment [3], -0.0369; in experiment [4] it was 0.0397; in experiment [5], -0.0047; in [6] it was -0.0132. The Bliss excess in [7] was 0.009; in experiment [8], -0.0325; in experiment [9], -0.0306; in [10], 0.0348; in [11], -0.0328; in experiment [12], 0.0385. In addition, the Bliss excess in experiment [13] is -0.0099; in [14] it was -0.0458; in [15], -0.0058; in experiment [16], 0.0465; in experiment [17] it was -0.0248. In addition, the “combination Emax” value in experiment [18] stood at 0.274.
